Reference: patent US7063861B2, “Bioavailable composition of natural and synthetic HCA” (Sabinsa Corporation, priority 2000, dated 2006)

Legend:
[1] = Oral administration of garcinol, HCA and combination: body weight, food and fluid consumption in SKH-1 mice; type: in vivo; conditions: 0.05% GAR, 1% HCA, Mean ± SE
[2] = test system: azoxymethane (AOM)-induced formation of aberrant colonic crypts (AC); assay: Azoxymethane (AOM)-induced formation of aberrant colonic crypts in CF-1 mice; type: in vivo; conditions: 10 week oral, 0.05% GAR, 1% HCA
[3] = Body weight and accumulation of fat in abdomen in CF-1 mice, 10 week oral administration; type: in vivo; conditions: 0.05% GAR, 1% HCA; for Body weight: AOM
[4] = test system: ATP citrate lyase enzyme; conditions: in vitro, purified enzyme; cited from earlier work
[5] = oral, before the feeding period; versus untreated controls; cited from earlier work
[6] = rats fed (−) HCA; cited from earlier work
[7] = target: T1, ATP citrate lyase (Homo sapiens, UniProt P53396); assay: Inhibition of ATP citrate lyase in hepatic cells in vitro; type: cell-based; conditions: extracellular versus cytosol
T1 construct: an in vitro study done on hepatic cells; endogenous in cells; host or cells: hepatic cells (species and cell type not specified)
T1 sequence (P53396 1-1101): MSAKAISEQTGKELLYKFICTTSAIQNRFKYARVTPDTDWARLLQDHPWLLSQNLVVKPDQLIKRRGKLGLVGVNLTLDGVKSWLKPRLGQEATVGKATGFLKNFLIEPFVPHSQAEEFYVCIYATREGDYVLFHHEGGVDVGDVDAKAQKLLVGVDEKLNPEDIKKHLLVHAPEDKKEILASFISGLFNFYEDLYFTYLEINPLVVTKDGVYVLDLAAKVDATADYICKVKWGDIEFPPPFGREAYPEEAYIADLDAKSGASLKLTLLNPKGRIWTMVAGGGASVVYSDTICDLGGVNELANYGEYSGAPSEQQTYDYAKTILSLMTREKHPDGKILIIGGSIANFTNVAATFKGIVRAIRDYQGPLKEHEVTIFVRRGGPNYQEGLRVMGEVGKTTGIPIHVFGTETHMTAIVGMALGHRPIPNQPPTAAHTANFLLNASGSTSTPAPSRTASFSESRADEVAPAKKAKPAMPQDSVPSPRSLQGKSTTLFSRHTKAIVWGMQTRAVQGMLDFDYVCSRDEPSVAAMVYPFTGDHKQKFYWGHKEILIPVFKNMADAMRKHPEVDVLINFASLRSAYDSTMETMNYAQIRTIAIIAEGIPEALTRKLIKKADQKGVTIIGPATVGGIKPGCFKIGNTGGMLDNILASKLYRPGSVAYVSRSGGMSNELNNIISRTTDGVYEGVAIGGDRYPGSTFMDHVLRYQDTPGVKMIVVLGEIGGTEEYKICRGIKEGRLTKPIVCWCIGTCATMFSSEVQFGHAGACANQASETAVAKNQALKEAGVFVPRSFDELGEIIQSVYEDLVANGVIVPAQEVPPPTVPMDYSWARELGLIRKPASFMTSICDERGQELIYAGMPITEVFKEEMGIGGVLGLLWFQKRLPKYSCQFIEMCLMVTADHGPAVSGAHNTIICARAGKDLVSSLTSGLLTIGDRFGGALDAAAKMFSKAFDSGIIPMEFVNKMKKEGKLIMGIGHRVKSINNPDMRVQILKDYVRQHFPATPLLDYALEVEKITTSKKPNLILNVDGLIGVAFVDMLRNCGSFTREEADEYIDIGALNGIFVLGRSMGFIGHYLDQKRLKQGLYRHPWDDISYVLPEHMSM
Source text: In their U.S. Patent, the Inventors addressed an important issue regarding the bioavailability of the HCA compounds. The U.S. Pat. No. 5,783,603 patent described a manufacturing process leading to a unique structure for a potassium salt of HCA, which facilitated its transport across biological membranes, effectively delivering more HCA into the cytosol for the competitive inhibition of ATP citrate lyase. […] Therefore, a 10-fold excess amount of potassium HCA is needed outside of the target cell in order to achieve a concentration of 1/10 that amount in the cytosol. This finding of relatively poor bioavailability of HCA, was confirmed in pre-clinical experiments (14), and points out the need to further improve the bioavailability and efficacy of HCA.

[8] = target: T1, ATP citrate lyase; conditions: cited from earlier work
[9] = test system: TPA-induced ear edema; assay: TPA-induced ear edema in female CF-1 mice; type: in vivo; conditions: 5 hours; for Weight per punch: mean ± SE
Experimental: The role of garcinol as a chemopreventive agent has been confirmed in an experiment in which CF-1 mice were treated topically with the inflammation and tumor promoting agent, TPA. [table]

[10] = TPA 1 nmol + GAR 0.1 umol topical on ear
[11] = TPA 1 nmol + GAR 0.5 umol topical on ear

excess needed outside the target cell over cytosol concentration [7] [fold]	Compound	Body weight ([1]; 5 weeks) [gm]	Body weight ([1]; 7 weeks) [gm]	Body weight ([1]; 10 weeks) [gm]	AC per colon [2]	AC per colon, percentage in parentheses (reduction versus control) [2] [%]	parametrial fat [3] [gm]	retroperitoneal fat [3] [gm]	Body weight [3] [gm]	inhibition of ATP citrate lyase enzyme [4]	food intake [5]	hepatic synthesis of fatty acids and cholesterol [5]	weight loss and cumulative food intake [6]	concentration needed in the cytosol to effectively inhibit ATP citrate lyase ([8]; cytosol) [mM]	extracellular concentration that could inhibit ATP citrate lyase ([8]; hepatic cells, extracellular) [mM]	Percent Inhibition of ear edema [9, 10] [%]	Weight per punch [9, 10] [mg]	Percent Inhibition of ear edema [9, 11] [%]	Weight per punch [9, 11] [mg]
–	O=C(O)CC(O)(C(=O)O)C(O)C(=O)O (stereo not drawn) [HCA, 1,2-dihydroxypropane-1,2,3-tricarboxylic acid]	32.5 ± 0.42	34.5 ± 0.59	36.8 ± 0.33	7.9	30.7	1.24 ± 0.06	0.79 ± 0.04	37.9 ± 0.66	potent linear competitive inhibitor	consumed less food	significantly diminished	weight loss with no decrease in cumulative food intake	–	–	–	–	–	–
10	O=C([O-])CC(O)(C(=O)[O-])C(O)C(=O)[O-].[K+].[K+].[K+] (stereo not drawn) [potassium HCA]	–	–	–	–	–	–	–	–	–	–	–	–	0.5	5	–	–	–	–
–	C=C(C)[C@@H](CC=C(C)C)C[C@@]12C[C@@H](CC=C(C)C)C(C)(C)[C@@](CC=C(C)C)(C(=O)C(C(=O)c3ccc(O)c(O)c3)=C1O)C2=O [GAR, garcinol]	32.8 ± 0.37	33.9 ± 0.14	36.4 ± 0.55	7.8	31.6	1.21 ± 0.18	0.85 ± 0.01	37.3 ± 1.07	–	–	–	–	–	–	38.5	12.4 ± 0.81	77.5	9.25 ± 0.66
